# Test results: patent US10647713B2 (Nimbus Lakshmi, Inc., priority 2016, dated 2020)
# Biological target: human TYK2 (JH2domain-pseudokinase) (Homo sapiens (Human), UniProt P29597)
# Assay: TYK2 JH2 Domain Binding Assay (KINOMEscan, DiscoveRx)
# Conditions: 11-point dilution, duplicate
# In short: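 TYK2 JH2 (G556–D888)–NFkB DBD fusion, DNA-tagged, from HEK293 extracts (<0.1 nM) competed against immobilised biotinylated ligand for 1 h at room temperature, 0.9% DMSO. Bead-retained kinase quantified by qPCR; Kd from 11-point 3-fold series (top 30,000 nM, duplicate), Hill fit with slope −1.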
# human TYK2 (JH2domain-pseudokinase), sequence (P29597 556-888): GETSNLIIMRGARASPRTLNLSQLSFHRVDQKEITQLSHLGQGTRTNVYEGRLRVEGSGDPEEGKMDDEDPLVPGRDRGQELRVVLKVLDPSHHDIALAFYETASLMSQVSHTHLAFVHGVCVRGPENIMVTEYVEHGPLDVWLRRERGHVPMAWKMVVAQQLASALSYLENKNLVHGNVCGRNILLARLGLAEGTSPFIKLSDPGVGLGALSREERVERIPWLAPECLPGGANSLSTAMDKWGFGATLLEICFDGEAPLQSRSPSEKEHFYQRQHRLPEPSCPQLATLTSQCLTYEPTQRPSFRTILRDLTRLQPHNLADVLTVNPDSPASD
row,Kd,Compound
1,1 to 10 nM,"Cc1nc2c(Nc3ccc(-c4oc(C)cc4C)cc3S(C)(=O)=O)cc(NC(=O)C3CC3)nc2[nH]1 [I-561, N-(7-((4-(3,5-dimethylfuran-2-yl)-2-(methylsulfonyl)phenyl)amino)-2-methyl-3H-imidazo[4,5-b]pyridin-5-yl)cyclopropanecarboxamide]"
2,1 to 10 nM,"Cc1cc(Nc2cc(Nc3ccc(C4=NC(C)(C)CS4)cc3S(C)(=O)=O)c3nc(C(F)F)[nH]c3n2)nc(C)n1 [I-563, 2-(difluoromethyl)-N7-(4-(4,4-dimethyl-4,5-dihydrothiazol-2-yl)-2-(methylsulfonyl)phenyl)-N5-(2,6-dimethylpyrimidin-4-yl)-3H-imidazo[4,5-b]pyridine-5,7-diamine]"
3,0.1 to 0.5 nM,"Cc1cc(Nc2cc(Nc3ccc(C4=NC(C)(C)CS4)cc3S(C)(=O)=O)c3nc(C)[nH]c3n2)nc(C)n1 [I-564, N7-(4-(4,4-dimethyl-4,5-dihydrothiazol-2-yl)-2-(methylsulfonyl)phenyl)-N5-(2,6-dimethylpyrimidin-4-yl)-2-methyl-3H-imidazo[4,5-b]pyridine-5,7-diamine]"
4,1 to 10 nM,"Cc1ncc(Nc2cc(Nc3ccc(C4=NC(C)(C)CS4)cc3S(C)(=O)=O)c3nc(C(F)F)[nH]c3n2)nc1C [I-565, 2-(difluoromethyl)-N7-(4-(4,4-dimethyl-4,5-dihydrothiazol-2-yl)-2-(methylsulfonyl)phenyl)-N5-(5,6-dimethylpyrazin-2-yl)-3H-imidazo[4,5-b]pyridine-5,7-diamine]"
5,1 to 10 nM,"Cc1nc2c(Nc3ccc(C4=NC(C)(C)CS4)cc3S(C)(=O)=O)cc(Nc3cnc(C)c(C)n3)nc2[nH]1 [I-566, N7-(4-(4,4-dimethyl-4,5-dihydrothiazol-2-yl)-2-(methylsulfonyl)phenyl)-N5-(5,6-dimethylpyrazin-2-yl)-2-methyl-3H-imidazo[4,5-b]pyridine-5,7-diamine]"
6,1 to 10 nM,"CC1(C)CSC(c2ccc(Nc3cc(NC(=O)C4CC4)nc4[nH]c(C(F)F)nc34)c(S(C)(=O)=O)c2)=N1 [I-567, N-(2-(difluoromethyl)-7-((4-(4,4-dimethyl-4,5-dihydrothiazol-2-yl)-2-(methylsulfonyl)phenyl)amino)-3H-imidazo[4,5-b]pyridin-5-yl)cyclopropanecarboxamide]"
7,0.5 to 1 nM,"Cc1nc2c(Nc3ccc(C4=NC(C)(C)CS4)cc3S(C)(=O)=O)cc(NC(=O)C3CC3)nc2[nH]1 [I-568, N-(7-((4-(4,4-dimethyl-4,5-dihydrothiazol-2-yl)-2-(methylsulfonyl)phenyl)amino)-2-methyl-3H-imidazo[4,5-b]pyridin-5-yl)cyclopropanecarboxamide]"
8,< 0.1 nM,"Cc1nc2c(Nc3ccc([C@H]4CCCO4)cc3S(C)(=O)=O)cc(Nc3cccc(C#N)n3)nc2[nH]1 [I-569, (R)-6-((2-methyl-7-((2-(methylsulfonyl)-4-(tetrahydrofuran-2-yl)phenyl)amino)-3H-imidazo[4,5-b]pyridin-5-yl)amino)picolinonitrile]"
9,0.1 to 0.5 nM,"Cc1nc2c(Nc3ccc([C@@H]4CCCO4)cc3S(C)(=O)=O)cc(Nc3cccc(C#N)n3)nc2[nH]1 [I-570, (S)-6-((2-methyl-7-((2-(methylsulfonyl)-4-(tetrahydrofuran-2-yl)phenyl)amino)-3H-imidazo[4,5-b]pyridin-5-yl)amino)picolinonitrile]"
10,1 to 10 nM,"COc1c(Nc2cc(Nc3cccc(C#N)n3)nc3[nH]c(C)nc23)cccc1-c1nccs1 [I-573, 6-((7-((2-methoxy-3-(thiazol-2-yl)phenyl)amino)-2-methyl-3H-imidazo[4,5-b]pyridin-5-yl)amino)picolinonitrile]"
11,0.1 to 0.5 nM,"COc1c(Nc2cc(Nc3cccc(C#N)n3)nc3[nH]c(C(F)F)nc23)cccc1-c1cnn(C)n1 [I-574, 6-((2-(difluoromethyl)-7-((2-methoxy-3-(2-methyl-2H-1,2,3-triazol-4-yl)phenyl)amino)-3H-imidazo[4,5-b]pyridin-5-yl)amino)picolinonitrile]"
12,0.1 to 0.5 nM,"Cc1nc2c(Nc3ccc(C4CCCO4)cc3S(C)(=O)=O)cc(Nc3ccc(C(C)C)c(C#N)n3)nc2[nH]1 (stereo not shown) [I-575, 3-isopropyl-6-((2-methyl-7-((2-(methylsulfonyl)-4-(tetrahydrofuran-2-yl)phenyl)amino)-3H-imidazo[4,5-b]pyridin-5-yl)amino)picolinonitrile]"
13,0.1 to 0.5 nM,"Cc1nc2c(Nc3ccc(-c4cc(C)n(C)n4)cc3S(C)(=O)=O)cc(Nc3cccc(C#N)n3)nc2[nH]1 [I-583, 6-((7-((4-(1,5-dimethyl-1H-pyrazol-3-yl)-2-(methylsulfonyl)phenyl)amino)-2-methyl-3H-imidazo[4,5-b]pyridin-5-yl)amino)picolinonitrile]"
14,0.1 to 0.5 nM,"COCCCc1cnc(-c2ccc(Nc3cc(NC(=O)C4CC4)nc4[nH]c(C(F)F)nc34)c(S(C)(=O)=O)c2)s1 [I-584, N-(2-(difluoromethyl)-7-((4-(5-(3-methoxypropyl)thiazol-2-yl)-2-(methylsulfonyl)phenyl)amino)-3H-imidazo[4,5-b]pyridin-5-yl)cyclopropanecarboxamide]"
15,0.1 to 0.5 nM,"Cc1nc2c(Nc3ccc(-c4cnn(C)c4C)cc3S(C)(=O)=O)cc(Nc3cccc(C(F)(F)F)n3)nc2[nH]1 [I-585, N7-(4-(1,5-dimethyl-1H-pyrazol-4-yl)-2-(methylsulfonyl)phenyl)-2-methyl-N5-(6-(trifluoromethyl)pyridin-2-yl)-3H-imidazo[4,5-b]pyridine-5,7-diamine]"
16,0.1 to 0.5 nM,"Cc1nc2c(Nc3ccc([C@H]4CCCCO4)cc3S(C)(=O)=O)cc(Nc3cc4n(n3)CCOC4)nc2[nH]1 [I-587, (R)—N5-(6,7-dihydro-4H-pyrazolo[5,1-c][1,4]oxazin-2-yl)-2-methyl-N7-(2-(methylsulfonyl)-4-(tetrahydro-2H-pyran-2-yl)phenyl)-3H-imidazo[4,5-b]pyridine-5,7-diamine]"

row,Compound,Kd
1,"COc1cc(-c2nc(C)c(C)s2)ccc1Nc1cc(NC(=O)C2CC2)nc2[nH]c(C)nc12 [I-559, N-(7-((4-(4,5-dimethylthiazol-2-yl)-2-methoxyphenyl)amino)-2-methyl-3H-imidazo[4,5-b]pyridin-5-yl)cyclopropanecarboxamide]",1 to 10 nM
2,"Cc1nc2c(Nc3ccc(-c4nn(C)c(C)c4C)cc3S(C)(=O)=O)cc(NC(=O)C3CC3)nc2[nH]1 [I-560, N-(2-methyl-7-((2-(methylsulfonyl)-4-(1,4,5-trimethyl-1H-pyrazol-3-yl)phenyl)amino)-3H-imidazo[4,5-b]pyridin-5-yl)cyclopropanecarboxamide]",< 0.1 nM
3,"Cc1nc2c(Nc3ccc(-c4cnn(C5CC5)c4C)cc3S(C)(=O)=O)cc(NC(=O)C3CC3)nc2[nH]1 [I-562, N-(7-((4-(1-cyclopropyl-5-methyl-1H-pyrazol-4-yl)-2-(methylsulfonyl)phenyl)amino)-2-methyl-3H-imidazo[4,5-b]pyridin-5-yl)cyclopropanecarboxamide]",< 0.1 nM
4,"CS(=O)(=O)c1cc(C2CCC(F)(F)CO2)ccc1Nc1cc(NC(=O)C2CC2)nc2[nH]c(C(F)F)nc12 (stereo not shown) [I-571, N-(2-(difluoromethyl)-7-((4-(5,5-difluorotetrahydro-2H-pyran-2-yl)-2-(methylsulfonyl)phenyl)amino)-3H-imidazo[4,5-b]pyridin-5-yl)cyclopropanecarboxamide]",0.1 to 0.5 nM
5,"Cc1nc2c(Nc3ccc(C4CCC(F)(F)CO4)cc3S(C)(=O)=O)cc(NC(=O)C3CC3)nc2[nH]1 (stereo not shown) [I-572, N-(7-((4-(5,5-difluorotetrahydro-2H-pyran-2-yl)-2-(methylsulfonyl)phenyl)amino)-2-methyl-3H-imidazo[4,5-b]pyridin-5-yl)cyclopropanecarboxamide]",0.1 to 0.5 nM
6,"COc1c(Nc2cc(NC(=O)C3CC3)nc3[nH]c(C(F)F)nc23)ccc(-c2cc(C)n(C)n2)c1F [I-576, N-(2-(difluoromethyl)-7-((4-(1,5-dimethyl-1H-pyrazol-3-yl)-3-fluoro-2-methoxyphenyl)amino)-3H-imidazo[4,5-b]pyridin-5-yl)cyclopropanecarboxamide]",> 10 nM
7,"COc1c(Nc2cc(NC(=O)C3CC3)nc3[nH]c(C)nc23)ccc(-c2cc(C)n(C)n2)c1F [I-577, N-(7-((4-(1,5-dimethyl-1H-pyrazol-3-yl)-3-fluoro-2-methoxyphenyl)amino)-2-methyl-3H-imidazo[4,5-b]pyridin-5-yl)cyclopropanecarboxamide]",> 10 nM
8,"Cc1cc(Nc2cc(Nc3ccc(-c4nc(C)sc4C)cc3S(C)(=O)=O)c3nc(C(F)F)[nH]c3n2)nc(C)n1 [I-578, 2-(difluoromethyl)-N5-(2,6-dimethylpyrimidin-4-yl)-N7-(4-(2,5-dimethylthiazol-4-yl)-2-(methylsulfonyl)phenyl)-3H-imidazo[4,5-b]pyridine-5,7-diamine]",0.1 to 0.5 nM
9,"Cc1cc(Nc2cc(Nc3ccc(-c4nc(C)sc4C)cc3S(C)(=O)=O)c3nc(C)[nH]c3n2)nc(C)n1 [I-579, N5-(2,6-dimethylpyrimidin-4-yl)-N7-(4-(2,5-dimethylthiazol-4-yl)-2-(methylsulfonyl)phenyl)-2-methyl-3H-imidazo[4,5-b]pyridine-5,7-diamine]",< 0.1 nM
10,"Cc1nc(-c2ccc(Nc3cc(Nc4cnc(C)c(C)n4)nc4[nH]c(C(F)F)nc34)c(S(C)(=O)=O)c2)c(C)s1 [I-580, 2-(difluoromethyl)-N5-(5,6-dimethylpyrazin-2-yl)-N7-(4-(2,5-dimethylthiazol-4-yl)-2-(methylsulfonyl)phenyl)-3H-imidazo[4,5-b]pyridine-5,7-diamine]",0.1 to 0.5 nM
11,"Cc1nc2c(Nc3ccc(-c4nc(C)sc4C)cc3S(C)(=O)=O)cc(Nc3cnc(C)c(C)n3)nc2[nH]1 [I-581, N5-(5,6-dimethylpyrazin-2-yl)-N7-(4-(2,5-dimethylthiazol-4-yl)-2-(methylsulfonyl)phenyl)-2-methyl-3H-imidazo[4,5-b]pyridine-5,7-diamine]",0.1 to 0.5 nM
12,"COc1cc(-c2nc(C)c(C)s2)ccc1Nc1cc(NC(=O)C2CC2)nc2[nH]c(C(F)F)nc12 [I-582, N-(2-(difluoromethyl)-7-((4-(4,5-dimethylthiazol-2-yl)-2-methoxyphenyl)amino)-3H-imidazo[4,5-b]pyridin-5-yl)cyclopropanecarboxamide]",> 10 nM
